Test results published in patent US9718825B2, “N-(4-(azaindazol-6-yl)-phenyl)-sulfonamides and their use as pharmaceuticals” (priority 2013, dated 2017).
Read-outs that look alike come from different tables or passages of the source.

Legend:
[1] = target: recombinant human SGK-1 enzyme (Homo sapiens, UniProt O00141); experiment: Enzymatic activity assay: SGK-1 substrate peptide phosphorylation (Caliper lab-chip mobility shift); type: biochemical
[2] = tested on: SGK-1 dependent phosphorylation of GSK3beta in U2OS cells; experiment: SGK-1 dependent phosphorylation of GSK3beta in U2OS cells overexpressing recombinant SGK-1 and GSK3beta; type: cell-based, human; conditions: U2OS cells, 6 h incubation, ratio of phosphorylated GSK3beta to total GSK3beta, read-out: IC50 values for inhibition of SGK-1 dependent phosphorylation of GSK3beta in U2OS cells
[3] = peptide substrate 1 μM, ATP 10 μM, 60 min at 37° C., read-out: IC50 values for inhibition of SGK-1 enzymatic activity

recombinant human SGK-1 enzyme, sequence (O00141 whole entry, looked up): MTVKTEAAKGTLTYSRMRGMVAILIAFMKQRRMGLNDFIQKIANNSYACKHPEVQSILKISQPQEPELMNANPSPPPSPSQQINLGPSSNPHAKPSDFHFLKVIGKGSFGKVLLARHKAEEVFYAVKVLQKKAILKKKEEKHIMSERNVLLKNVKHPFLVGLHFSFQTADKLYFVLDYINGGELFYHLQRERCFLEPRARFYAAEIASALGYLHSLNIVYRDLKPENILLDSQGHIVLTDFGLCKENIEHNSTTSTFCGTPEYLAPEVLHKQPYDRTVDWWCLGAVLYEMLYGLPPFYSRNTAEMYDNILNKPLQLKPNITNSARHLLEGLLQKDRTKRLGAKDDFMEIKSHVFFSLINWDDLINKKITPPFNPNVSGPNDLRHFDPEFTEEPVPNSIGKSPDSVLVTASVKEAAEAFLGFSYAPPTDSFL

Question: Which results are given for `Nc1n[nH]c2nc(-c3ccc(NS(=O)(=O)c4cc(Cl)sc4Cl)cc3)nc(C3CC3)c12` [Example 500]?
Answer: IC50 [1, 3]: 2.7 nM; IC50 [2]: 250 nM

Question: How did the IC50 [1, 3] turn out when `COc1ccc(Cl)c(S(=O)(=O)Nc2ccc(-c3nc(OCCCN)c4c(C)n[nH]c4n3)cc2)c1` [Example 212] was run?
Answer: The IC50 was less than 1.5 nM.

Question: And the IC50 [2]?
Answer: The IC50 was 110 nM.

Question: For `Cc1n[nH]c2nc(-c3ccc(NS(=O)(=O)c4ccccc4F)cc3)nc(OC3CCNCC3F)c12` (stereo not drawn) [Example 297], which IC50 [1, 3] is on record?
Answer: The IC50 was 1.8 nM.

Question: What about the IC50 [2] of the same compound?
Answer: The IC50 was 80 nM.

Question: For `Cc1ccc(C#N)c(S(=O)(=O)Nc2ccc(-c3nc(OCCCN)c4c(C)n[nH]c4n3)cc2)c1` [Example 213], which IC50 [1, 3] is on record?
Answer: The IC50 was 6.4 nM.

Question: And the IC50 [2]?
Answer: Its IC50 is 190 nM.

Question: `NCCCOc1nc(-c2ccc(NS(=O)(=O)c3cc(Cl)ccc3Cl)cc2)nc2[nH]ncc12` [Example 63] was tested. Which IC50 [1, 3] did it give?
Answer: The IC50 was less than 1.2 nM.

Question: What about the IC50 [2] of the same compound?
Answer: The IC50 was 280 nM.

Question: How did the IC50 ([1]; read-out: IC50 values for inhibition of SGK-1 enzymatic activity, peptide substrate 1 μM, ATP 10 μM, 60 min at 37° C.) turn out when `Cc1n[nH]c2nc(-c3ccc(NS(=O)(=O)c4cc(Cl)ccc4Cl)cc3)ncc12` [Example 1, 2,5-Dichloro-N-[4-(3-methyl-1H-pyrazolo[3,4-d]pyrimidin-6-yl)-phenyl]-benzenesulfonamide] was run?
Answer: Its IC50 is less than 1.2 nM.

Question: What about the IC50 ([2]; Homo sapiens) of the same compound?
Answer: The IC50 was 830 nM.

Question: Which results are given for `Cc1ccc(C#N)c(S(=O)(=O)Nc2ccc(-c3nc(OC4CCN(CCF)CC4)c4c(C)n[nH]c4n3)cc2)c1` [Example 343]?
Answer: IC50 [1, 3]: 3.8 nM; IC50 [2]: 68 nM

Question: How did the IC50 [1, 3] turn out when `Nc1n[nH]c2nc(-c3ccc(NS(=O)(=O)c4cc5c(cc4Br)OCCCO5)cc3)ncc12` [Example 459] was run?
Answer: The IC50 was 6.7 nM.

Question: What about the IC50 [2] of the same compound?
Answer: The IC50 was 4000 nM.

Question: With `COc1ccc(Cl)c(S(=O)(=O)Nc2ccc(-c3nc(OC4CCC(O)CC4)c4cn[nH]c4n3)cc2)c1` (stereo not drawn) [Example 90] as the compound, how does the IC50 [1, 3] read?
Answer: The IC50 was 2.2 nM.

Question: What about the IC50 [2] of the same compound?
Answer: The IC50 was 200 nM.

Question: `COc1ccc(Cl)c(S(=O)(=O)Nc2ccc(-c3nc(OCC4CNCCO4)c4c(C)n[nH]c4n3)cc2)c1` (stereo not drawn) [Example 290] was tested. Which IC50 [1, 3] did it give?
Answer: The IC50 was 3.3 nM.

Question: And the IC50 [2]?
Answer: Its IC50 is 15 nM.

Question: With `Cc1ccc(F)c(S(=O)(=O)Nc2ccc(-c3nc(N4CC(CO)C4)c4cn[nH]c4n3)cc2)c1` [Example 109] as the compound, how does the IC50 [1, 3] read?
Answer: Its IC50 is 16 nM.

Question: And the IC50 [2]?
Answer: Its IC50 is 4600 nM.

Question: Which IC50 [1, 3] does the source give for `COCCc1nc(-c2ccc(NS(=O)(=O)c3cc(OC)ccc3C#N)cc2)nc2[nH]nc(N)c12` [Example 521] here?
Answer: Its IC50 is 65 nM.

Question: And the IC50 [2]?
Answer: The IC50 was 480 nM.

Question: Which IC50 [1, 3] does the source give for `O=S(=O)(Nc1ccc(-c2nc(OCCCCO)c3cn[nH]c3n2)cc1)c1cc(Cl)ccc1F` [Example 35] here?
Answer: The IC50 was 3.2 nM.

Question: And the IC50 [2]?
Answer: The IC50 was 5700 nM.

Question: For `COc1ccc(F)c(S(=O)(=O)Nc2ccc(-c3nc(OC4CCC(O)CC4)c4cn[nH]c4n3)cc2)c1` (stereo not drawn) [Example 133], which IC50 [1, 3] is on record?
Answer: The IC50 was less than 1.5 nM.

Question: What about the IC50 [2] of the same compound?
Answer: The IC50 was 260 nM.

Question: Which results are given for `COc1ccc(Cl)c(S(=O)(=O)Nc2ccc(-c3nc(OCCCC(N)=O)c4cn[nH]c4n3)cc2)c1` [Example 113]?
Answer: IC50 [1, 3]: 3 nM; IC50 [2]: 3600 nM

Question: For `Cc1n[nH]c2nc(-c3ccc(NS(=O)(=O)c4cc(F)ccc4F)cc3)nc(OC3CCC(O)CC3)c12` (stereo not drawn) [Example 217], which IC50 [1, 3] is on record?
Answer: Its IC50 is 9.1 nM.

Question: What about the IC50 [2] of the same compound?
Answer: Its IC50 is 190 nM.

Question: With `Cc1ccc(F)c(S(=O)(=O)Nc2ccc(-c3nc(OCCCN)c4c(C)n[nH]c4n3)cc2)c1` [Example 207] as the compound, how does the IC50 [1, 3] read?
Answer: Its IC50 is less than 1.5 nM.

Question: What about the IC50 [2] of the same compound?
Answer: Its IC50 is 140 nM.

Question: How did the IC50 [1, 3] turn out when `Cc1ccc(F)c(S(=O)(=O)Nc2ccc(-c3nc(OC4CCC(O)CC4)c4c(C)n[nH]c4n3)cc2)c1` (stereo not drawn) [Example 101] was run?
Answer: The IC50 was 2.1 nM.

Question: What about the IC50 [2] of the same compound?
Answer: The IC50 was 430 nM.

Question: Which results are given for `Cc1ccc(C#N)c(S(=O)(=O)Nc2ccc(-c3nc(OC4CCN(C)CC4)c4cn[nH]c4n3)cc2)c1` [Example 314]?
Answer: IC50 [1, 3]: 4.5 nM; IC50 [2]: 250 nM

Question: What does the source list for `COCCc1nc(-c2ccc(NS(=O)(=O)c3cc(Cl)c(F)cc3F)cc2)nc2[nH]nc(N)c12` [Example 501]?
Answer: IC50 [1, 3]: 40 nM; IC50 [2]: 450 nM

Question: For `COc1nc(-c2ccc(NS(=O)(=O)c3cc(Cl)cc(F)c3F)cc2)nc2[nH]ncc12` [Example 178], which IC50 [1, 3] is on record?
Answer: Its IC50 is 350 nM.

Question: What about the IC50 [2] of the same compound?
Answer: Its IC50 is 800 nM.

Question: For `Cc1ccc(F)c(S(=O)(=O)Nc2ccc(-c3ncc4c(C)n[nH]c4n3)cc2)c1` [Example 95], which IC50 [1, 3] is on record?
Answer: Its IC50 is less than 1.5 nM.

Question: And the IC50 [2]?
Answer: The IC50 was 4600 nM.

Question: Which results are given for `Cc1ccc(C#N)c(S(=O)(=O)Nc2ccc(-c3nc(C4CCC(O)C4)c4c(C)n[nH]c4n3)cc2)c1` (stereo not drawn) [Example 97]?
Answer: IC50 [1, 3]: 2 nM; IC50 [2]: 1600 nM

Question: `COCCc1nc(-c2ccc(NS(=O)(=O)c3cc(Cl)ccc3F)cc2)nc2[nH]nc(N)c12` [Example 506] was tested. Which IC50 [1, 3] did it give?
Answer: The IC50 was 110 nM.

Question: And the IC50 [2]?
Answer: The IC50 was 670 nM.
